# According to US10047075B2, “Pyridines and pyrimidines and use thereof” (Purdue Pharma L.P., priority 2014, dated 2018):
# Like-named read-outs stand apart in the source and are kept apart here.
# How the values were obtained:
# [1] = molecular target: hNav1.7 (Homo sapiens, UniProt Q15858); assay: Electrophysiology (EP) assay, whole-cell patch clamp, hNav1.7 expressing HEK-293 cells; assay type: cell-based; details: hNav1.7 HEK-293 cells; affinity for the inactivated state; read-out: Nav1.7 Activity (μM) EP assay Ki
# Chain of hNav1.7 (Q15858 1-1977 isoform Q15858-3): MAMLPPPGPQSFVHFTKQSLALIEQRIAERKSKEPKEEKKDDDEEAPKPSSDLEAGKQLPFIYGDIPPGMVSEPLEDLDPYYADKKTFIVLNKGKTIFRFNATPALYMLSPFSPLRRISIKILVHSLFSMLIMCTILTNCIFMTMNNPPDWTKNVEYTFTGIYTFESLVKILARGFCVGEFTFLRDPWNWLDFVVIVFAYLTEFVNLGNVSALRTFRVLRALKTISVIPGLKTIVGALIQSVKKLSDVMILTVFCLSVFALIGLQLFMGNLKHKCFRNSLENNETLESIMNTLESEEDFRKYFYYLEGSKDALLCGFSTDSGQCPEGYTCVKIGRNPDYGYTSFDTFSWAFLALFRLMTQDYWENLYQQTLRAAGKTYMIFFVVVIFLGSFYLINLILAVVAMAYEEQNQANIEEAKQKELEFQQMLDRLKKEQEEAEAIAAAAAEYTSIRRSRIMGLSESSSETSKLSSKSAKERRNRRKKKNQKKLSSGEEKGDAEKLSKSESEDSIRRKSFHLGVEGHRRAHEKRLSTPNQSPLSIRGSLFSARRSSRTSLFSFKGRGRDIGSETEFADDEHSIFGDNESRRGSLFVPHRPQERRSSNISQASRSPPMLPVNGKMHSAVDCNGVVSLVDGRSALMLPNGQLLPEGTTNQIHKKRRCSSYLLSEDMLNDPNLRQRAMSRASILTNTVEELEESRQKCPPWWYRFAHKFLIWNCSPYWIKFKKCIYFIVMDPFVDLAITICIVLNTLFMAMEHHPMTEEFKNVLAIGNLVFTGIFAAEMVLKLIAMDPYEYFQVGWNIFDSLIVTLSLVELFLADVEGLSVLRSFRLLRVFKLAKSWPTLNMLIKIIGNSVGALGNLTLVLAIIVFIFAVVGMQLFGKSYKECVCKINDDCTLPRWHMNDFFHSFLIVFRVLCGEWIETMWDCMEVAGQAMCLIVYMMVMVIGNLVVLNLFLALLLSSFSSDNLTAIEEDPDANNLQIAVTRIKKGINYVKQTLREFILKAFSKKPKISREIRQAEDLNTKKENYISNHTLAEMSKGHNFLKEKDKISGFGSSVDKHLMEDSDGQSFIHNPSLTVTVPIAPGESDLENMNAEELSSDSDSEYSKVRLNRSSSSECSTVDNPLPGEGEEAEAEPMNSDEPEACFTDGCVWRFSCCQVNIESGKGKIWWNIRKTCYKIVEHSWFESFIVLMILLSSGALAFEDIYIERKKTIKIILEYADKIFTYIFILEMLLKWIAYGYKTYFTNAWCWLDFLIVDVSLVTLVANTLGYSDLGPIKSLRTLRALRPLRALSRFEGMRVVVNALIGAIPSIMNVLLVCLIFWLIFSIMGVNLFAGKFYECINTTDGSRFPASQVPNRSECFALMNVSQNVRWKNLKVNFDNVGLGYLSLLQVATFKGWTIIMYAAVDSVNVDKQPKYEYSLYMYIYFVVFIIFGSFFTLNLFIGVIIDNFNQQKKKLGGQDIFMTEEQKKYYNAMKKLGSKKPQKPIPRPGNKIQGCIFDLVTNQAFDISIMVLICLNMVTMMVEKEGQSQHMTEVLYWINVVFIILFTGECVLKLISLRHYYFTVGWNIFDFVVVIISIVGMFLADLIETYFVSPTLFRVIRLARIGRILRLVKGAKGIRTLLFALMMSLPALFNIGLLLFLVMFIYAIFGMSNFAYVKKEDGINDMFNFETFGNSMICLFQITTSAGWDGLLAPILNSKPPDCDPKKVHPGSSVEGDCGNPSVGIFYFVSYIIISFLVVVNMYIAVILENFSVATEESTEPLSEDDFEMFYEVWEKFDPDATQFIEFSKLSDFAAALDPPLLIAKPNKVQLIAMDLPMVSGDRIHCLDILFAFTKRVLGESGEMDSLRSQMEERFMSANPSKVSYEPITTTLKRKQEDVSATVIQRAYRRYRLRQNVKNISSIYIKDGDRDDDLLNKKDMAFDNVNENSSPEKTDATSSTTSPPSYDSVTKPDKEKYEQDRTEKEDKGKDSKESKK
# Procedure: The hNav1.7 expressing HEK-293 cells are plated on 35 mm culture dishes pre-coated with poly-D-lysine in standard DMEM culture media (Mediatech, Inc., Herndon, Va.) and incubated in a 5% CO2 incubator at 37° C. Cultured cells are used approximately 12-48 hours after plating.
# The hNav1.7 expressing HEK-293 cells are plated on tissue culture flasks in standard DMEM culture media (Mediatech, Inc.) and incubated in a 5% CO2 incubator at 37° C. Cultured cells are used approximately 12-48 hours after plating.
# On the day of experimentation, the 35 mm dish is placed on the stage of an inverted microscope equipped with a perfusion system that continuously perfuses the culture dish with fresh recording media. A gravity driven superfusion system is used to apply test solutions directly to the cell under evaluation. This “shooter” system consists of an array of glass pipettes connected to a motorized horizontal translator. The outlet of the shooter is positioned approximately 100 μm from the cell of interest.
# Whole cell currents are recorded using the whole-cell patch clamp configuration using an Axopatch 200B amplifier (Axon Instruments, Foster City Calif.), 1322A A/D converter (Axon Instruments) and pClamp software (v. 8; Axon Instruments) and stored on a personal computer. Gigaseals are formed and the whole-cell configuration is established in voltage clamp mode, and membrane currents generated by hNav1.7 channels are recorded. Borosilicate glass pipettes with resistance values between 1.5 and 2.0 MΩ when filled with pipette solution are used and series resistance (<5 MΩ) is compensated by 75-80%. Signals are sampled at 50 kHz and low pass filtered at 3 kHz.
# Automated Electrophysiology: On the day of experimentation, cells are prepared by removing media and digesting with appropriate enzymes to suspend cells in external solution.
# Whole cell currents are recorded using the whole-cell patch clamp configuration using an Patchliner (Nanion Technologies, Munich Germany), EPC 10 quadro amplifiers (HEKA, Bellmore, N.Y.) and PatchControl HT 10905 (Nanion Technologies) and PatchMaster v2x73 software (HEKA) and stored on a personal computer. Gigaseals are formed and the whole-cell configuration is established in voltage clamp mode, and membrane currents generated by hNav1.7 are recorded. NPC-16 chips have resistance values between 1.0 and 2.0 MΩ when filled with pipette solution and series resistance (<5 MΩ). Signals are sampled at 25 kHz and low pass filtered at 3 kHz.
# After establishing the whole-cell configuration in voltage clamp mode, voltage protocols are run to establish the 1) test potential (Vmax), 2) holding potential (Vh), and 3) the conditioning potential for each cell.
# After establishing the whole-cell configuration in voltage clamp mode, a standard I-V protocol is run to determine the potential at which the maximal current (Imax) is elicited. This potential is the test potential (Vt). To determine a conditioning potential at which 100% of channels are in the inactivated state, a standard steady-state inactivation (SSIN) protocol is run using a series of fifteen 100 ms-long depolarizing prepulses, incrementing in 10 mV steps, immediately followed by a 5 ms testing pulse to Vmax. This protocol also permits determination of the holding potential at which all channels are in the resting state.
# For compounds causing significant retardation of recovery from inactivation, an estimate of the affinity for the inactivated state of the channel (Ki) is generated using the following protocol. From the negative, no residual inactivation, holding potential, the cell is depolarized to the conditioning voltage for 2-5 seconds, returned to the negative holding potential for 10-20 ms to relieve fast inactivation and then depolarized to the test potential for ˜15 ms. This voltage protocol is repeated every 10-15 seconds, first to establish a baseline in the absence of the test compound, then in the presence of the test compound. […]
# [2] = molecular target: human Nav1.7 (Homo sapiens, UniProt Q15858); assay: FLIPR or FLIPR TETRA sodium dye assay with KCl and test article pre-incubation (CoroNa Green, veratridine + scorpion venom); assay type: cell-based
# Chain of human Nav1.7 (Q15858 1-1977 isoform Q15858-3): as above
# [3] = molecular target: Nav1.6 (Homo sapiens, UniProt Q9UQD0); details: read-out: TTX IC50; cited from earlier work
# Chain of Nav1.6 (Q9UQD0 whole entry, looked up): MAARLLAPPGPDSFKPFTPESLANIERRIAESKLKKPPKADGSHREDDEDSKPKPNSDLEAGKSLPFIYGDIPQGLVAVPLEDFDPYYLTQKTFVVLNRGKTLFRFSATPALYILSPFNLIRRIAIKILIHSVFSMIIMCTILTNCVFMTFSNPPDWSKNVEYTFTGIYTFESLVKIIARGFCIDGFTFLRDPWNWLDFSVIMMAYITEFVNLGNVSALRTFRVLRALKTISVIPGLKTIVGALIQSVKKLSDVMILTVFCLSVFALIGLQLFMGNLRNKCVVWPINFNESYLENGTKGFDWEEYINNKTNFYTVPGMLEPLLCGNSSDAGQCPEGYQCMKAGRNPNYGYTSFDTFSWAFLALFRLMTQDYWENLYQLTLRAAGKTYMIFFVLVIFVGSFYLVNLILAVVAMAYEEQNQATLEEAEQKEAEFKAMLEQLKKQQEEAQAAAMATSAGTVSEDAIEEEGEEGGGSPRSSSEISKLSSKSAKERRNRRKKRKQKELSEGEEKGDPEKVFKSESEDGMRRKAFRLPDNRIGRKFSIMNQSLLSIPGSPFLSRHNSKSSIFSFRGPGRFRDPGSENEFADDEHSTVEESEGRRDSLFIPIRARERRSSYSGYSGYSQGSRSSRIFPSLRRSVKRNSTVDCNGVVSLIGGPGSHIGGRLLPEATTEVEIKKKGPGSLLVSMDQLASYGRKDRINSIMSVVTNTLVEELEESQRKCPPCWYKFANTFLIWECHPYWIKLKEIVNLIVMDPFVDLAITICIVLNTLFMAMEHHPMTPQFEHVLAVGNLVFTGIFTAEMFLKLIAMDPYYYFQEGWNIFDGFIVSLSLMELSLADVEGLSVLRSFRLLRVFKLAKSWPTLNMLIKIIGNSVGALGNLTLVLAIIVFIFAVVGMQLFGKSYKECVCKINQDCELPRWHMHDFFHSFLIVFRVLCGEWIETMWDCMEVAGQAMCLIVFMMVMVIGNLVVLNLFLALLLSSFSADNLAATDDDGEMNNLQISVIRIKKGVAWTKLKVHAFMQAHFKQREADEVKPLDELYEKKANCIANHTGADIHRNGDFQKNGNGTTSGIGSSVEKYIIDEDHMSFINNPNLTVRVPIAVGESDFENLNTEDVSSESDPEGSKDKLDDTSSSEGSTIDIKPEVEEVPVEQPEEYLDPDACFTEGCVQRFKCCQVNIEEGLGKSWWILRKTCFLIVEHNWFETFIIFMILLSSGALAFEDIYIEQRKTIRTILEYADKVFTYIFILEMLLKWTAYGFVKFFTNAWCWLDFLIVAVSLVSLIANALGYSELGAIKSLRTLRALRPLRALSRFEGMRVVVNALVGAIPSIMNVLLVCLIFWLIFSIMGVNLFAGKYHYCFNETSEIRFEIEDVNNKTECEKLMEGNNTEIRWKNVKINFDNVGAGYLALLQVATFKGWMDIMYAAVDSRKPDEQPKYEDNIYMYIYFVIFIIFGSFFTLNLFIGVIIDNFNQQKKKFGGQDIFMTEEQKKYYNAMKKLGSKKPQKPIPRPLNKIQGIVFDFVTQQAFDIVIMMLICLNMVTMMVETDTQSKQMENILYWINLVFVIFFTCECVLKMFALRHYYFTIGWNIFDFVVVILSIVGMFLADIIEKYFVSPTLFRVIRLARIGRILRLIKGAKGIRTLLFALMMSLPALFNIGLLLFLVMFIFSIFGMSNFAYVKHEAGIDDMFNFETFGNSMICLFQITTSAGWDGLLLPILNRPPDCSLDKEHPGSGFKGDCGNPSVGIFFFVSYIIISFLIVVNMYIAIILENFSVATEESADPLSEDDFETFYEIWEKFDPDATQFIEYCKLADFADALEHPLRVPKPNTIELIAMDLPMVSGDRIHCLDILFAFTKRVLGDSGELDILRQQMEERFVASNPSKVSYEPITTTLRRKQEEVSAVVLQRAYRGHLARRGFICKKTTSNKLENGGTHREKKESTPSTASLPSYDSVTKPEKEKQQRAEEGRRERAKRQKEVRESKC
# [4] = molecular target: Nav1.2 (Homo sapiens, UniProt Q99250); details: read-out: TTX IC50; cited from earlier work
# [5] = molecular target: Nav1.1 (Homo sapiens, UniProt P35498); details: read-out: TTX IC50; cited from earlier work
# [6] = molecular target: Nav1.3 (Homo sapiens, UniProt Q9NY46); details: read-out: TTX IC50; cited from earlier work
# [7] = molecular target: Nav1.9 (Homo sapiens, UniProt Q9UI33); details: read-out: TTX IC50; cited from earlier work
# [8] = molecular target: Nav1.8 (Homo sapiens, UniProt Q9Y5Y9); details: read-out: TTX IC50; cited from earlier work
# [9] = recombinant human Nav1.7 in HEK293 cells
Structure (SMILES),Ki [1] [µM],"IC50 [2, 9] [µM]",further results
"OC[C@@H](O)c1cccc(-c2ccc3c(c2)COCCN3c2ccc(C(F)(F)F)cc2)n1 [Compound 62, (S)-1-(6-(1-(4-(trifluoromethyl)phenyl)-1,2,3,5-tetrahydrobenzo[e][1,4]oxazepin-7-yl)pyridin-2-yl)ethane-1,2-diol]",0.458 ± 0.078,0.419 ± 0.058,–
"C[C@H](Nc1cc(C(N)=O)nc(-c2ccc3c(c2)OCCCN3c2ccc(C(F)(F)F)cc2)n1)C(N)=O [Compound 63, (S)-6-((1-amino-1-oxopropan-2-yl)amino)-2-(5-(4-(trifluoromethyl)phenyl)-2,3,4,5-tetrahydrobenzo[b][1,4]oxazepin-8-yl)pyrimidine-4-carboxamide]",0.344 ± 0.1,0.246 ± 0.029,–
"CN1CCN(c2ccc(C(F)(F)F)cc2)c2ccc(-c3cccc(C(N)=O)n3)cc2C1 [Compound 85, 6-(4-methyl-1-(4-(trifluoromethyl)phenyl)-2,3,4,5-tetrahydro-1H-benzo[e][1,4]diazepin-7-yl)picolinamide]",0.399 ± 0.2,0.607 ± 0.086,–
"OC[C@@H](O)c1cccc(-c2ccc3c(c2)CN(CC2CC2)CCN3c2ccc(C(F)(F)F)cc2)n1 [Compound 87, (S)-1-(6-(4-(cyclopropylmethyl)-1-(4-(trifluoromethyl)phenyl)-2,3,4,5-tetrahydro-1H-benzo[e][1,4]diazepin-7-yl)pyridin-2-yl)ethane-1,2-diol]",0.548 ± 0.089,–,IC50 [2]: 1.32 ± 0.133 µM
"CC(=O)N1CCN(c2ccc(C(F)(F)F)cc2)c2ccc(-c3cccc(C(N)=O)n3)cc2C1 [Compound 91, 6-(4-acetyl-1-(4-(trifluoromethyl)phenyl)-2,3,4,5-tetrahydro-1H-benzo[e][1,4]diazepin-7-yl)picolinamide]",0.3 ± 0.033,0.375 ± 0.062,–
"CC(=O)N1CCN(c2ccc(C(F)(F)F)cc2)c2ccc(-c3cccc([C@H](O)CO)n3)cc2C1 [Compound 96, (S)-1-(7-(6-(1,2-dihydroxyethyl)pyridin-2-yl)-1-(4-(trifluoromethyl)phenyl)-1,2,3,5-tetrahydro-4H-benzo[e][1,4]diazepin-4-yl)ethan-1-one]",0.627 ± 0.134,0.662 ± 0.035,–
"NC(=O)N1CCN(c2ccc(C(F)(F)F)cc2)c2ccc(-c3cccc([C@H](O)CO)n3)cc2C1 [Compound 98, (S)-7-(6-(1,2-dihydroxyethyl)pyridin-2-yl)-1-(4-(trifluoromethyl)phenyl)-1,2,3,5-tetrahydro-4H-benzo[e][1,4]diazepin-4-carboxamide]",0.451 ± 0.092,–,IC50 [2]: 0.973 ± 0.099 µM
"O=C(CO)N1CCN(c2ccc(C(F)(F)F)cc2)c2ccc(-c3cccc([C@H](O)CO)n3)cc2C1 [Compound 99, (S)-1-(7-(6-(1,2-dihydroxyethyl)pyridin-2-yl)-1-(4-(trifluoromethyl)phenyl)-1,2,3,5-tetrahydro-4H-benzo[e][1,4]diazepin-4-yl)-2-hydroxyethan-1-one]",1.23 ± 0.364,0.896 ± 0.186,–
"NC(=O)CN1CCN(c2ccc(C(F)(F)F)cc2)c2ccc(-c3cccc([C@H](O)CO)n3)cc2C1 [Compound 103, (S)-2-(7-(6-(1,2-dihydroxyethyl)pyridin-2-yl)-1-(4-(trifluoromethyl)phenyl)-1,2,3,5-tetrahydro-4H-benzo[e][1,4]diazepin-4-yl)acetamide]",0.299 ± 0.068,–,IC50 [2]: 1.05 ± 0.055 µM
"NC(=O)c1cccc(-c2ccc3c(c2)OCCC3c2ccc(C(F)(F)F)cc2)n1 (stereo not drawn) [Compound 110, 6-(4-(4-(trifluoromethyl)-phenyl)chroman-7-yl)-picolinamide]",0.161 ± 0.07,0.142 ± 0.038,–
"C[C@H](Nc1cc(C(N)=O)nc(-c2ccc3c(c2)OCCC3c2ccc(C(F)(F)F)cc2)n1)C(N)=O (stereo partly drawn) [Compound 111, 6-(((S)-1-amino-1-oxopropan-2-yl)amino)-2-(4-(4-(trifluoromethyl)phenyl)chroman-7-yl)pyrimidine-4-carboxamide]",0.459 ± 0.1,0.379 ± 0.044,–
"CC(C)CN1CCN(S(C)(=O)=O)Cc2cc(-c3cccc([C@H](O)CO)n3)ccc21 [Compound 124, (S)-1-(6-(1-isobutyl-4-(methylsulfonyl)-2,3,4,5-tetrahydro-1H-benzo-[e][1,4]diazepin-7-yl)pyridin-2-yl)ethane-1,2-diol]",2.14 ± 0.586,–,–
"CC(C)CN1CCN(S(C)(=O)=O)Cc2cc(-c3cccc([C@H](O)[C@@H](O)C(N)=O)n3)ccc21 [Compound 125, (2R,3S)-2,3-dihydroxy-3-(6-(1-isobutyl-4-(methylsulfonyl)-2,3,4,5-tetrahydro-1H-benzo[e][1,4]diazepin-7-yl)pyridin-2-yl)propanamide]",7.1 ± 2.45,–,–
"NC1=N[C@H](O)[C@H]2[C@H]3O[C@]4(O)O[C@@H]([C@@H](O)[C@@]2(N1)[C@@H]4O)[C@]3(O)CO [TTX, tetrodotoxin]",–,–,IC50 [3]: 6 nM; IC50 [4]: 10 nM; IC50 [5]: 10 nM; IC50 [6]: 15 nM; IC50 [7]: 1000 nM; IC50 [8]: 50000 nM
